Source: ChEMBL document CHEMBL1147987, “Novel aminoethylbiphenyls as 5-HT7 receptor ligands” (Bioorg Med Chem Lett, 2007)

Tests used:
[1] = target: T1, 5-hydroxytryptamine receptor 1A (Rattus norvegicus) (UniProt P19327); experiment: Binding affinity to rat 5HT1A at 1 uM
T1 sequence (whole entry): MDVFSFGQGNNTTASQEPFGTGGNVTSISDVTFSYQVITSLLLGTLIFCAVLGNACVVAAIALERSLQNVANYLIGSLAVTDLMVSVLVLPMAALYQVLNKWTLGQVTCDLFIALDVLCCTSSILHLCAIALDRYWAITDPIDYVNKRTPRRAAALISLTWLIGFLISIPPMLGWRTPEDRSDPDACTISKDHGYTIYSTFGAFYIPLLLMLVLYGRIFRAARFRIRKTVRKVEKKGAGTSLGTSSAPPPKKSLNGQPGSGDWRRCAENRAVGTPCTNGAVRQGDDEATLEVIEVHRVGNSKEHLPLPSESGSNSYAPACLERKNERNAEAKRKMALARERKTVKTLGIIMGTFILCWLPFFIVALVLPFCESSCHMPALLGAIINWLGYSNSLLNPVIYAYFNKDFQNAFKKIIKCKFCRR

[2] = target: T2, 5-hydroxytryptamine receptor 7 (Homo sapiens, UniProt P34969); experiment: Displacement of [3H]LSD from human 5HT7 in sf9 cells at 1 uM; type: cell-based
T2 sequence (P34969 whole entry): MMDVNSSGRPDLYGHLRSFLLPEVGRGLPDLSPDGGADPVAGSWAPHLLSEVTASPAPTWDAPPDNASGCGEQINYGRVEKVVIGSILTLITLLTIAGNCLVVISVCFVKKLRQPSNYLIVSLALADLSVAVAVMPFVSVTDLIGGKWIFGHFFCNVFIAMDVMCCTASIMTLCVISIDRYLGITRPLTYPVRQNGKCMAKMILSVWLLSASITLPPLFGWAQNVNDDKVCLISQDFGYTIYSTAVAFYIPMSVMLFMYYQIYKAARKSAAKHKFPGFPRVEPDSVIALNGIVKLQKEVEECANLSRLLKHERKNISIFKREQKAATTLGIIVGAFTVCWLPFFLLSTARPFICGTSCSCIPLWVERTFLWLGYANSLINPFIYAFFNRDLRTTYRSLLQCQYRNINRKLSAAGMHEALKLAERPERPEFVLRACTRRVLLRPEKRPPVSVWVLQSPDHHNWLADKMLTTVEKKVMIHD

[3] = target: T2, 5-hydroxytryptamine receptor 7; experiment: Displacement of [3H]LSD from human 5HT7 in sf9 cells at 0.01 uM; type: cell-based
[4] = target: T1, 5-hydroxytryptamine receptor 1A (Rattus norvegicus); experiment: Binding affinity to rat 5HT1A at 0.01 uM
[5] = target: T2, 5-hydroxytryptamine receptor 7; experiment: Displacement of [3H]LSD from human 5HT7 in sf9 cells; type: cell-based
[6] = target: T3, 5-hydroxytryptamine receptor 1A (Rattus norvegicus, UniProt P19327); experiment: Binding affinity to rat 5HT1A
T3 sequence (P19327 whole entry): T1 sequence (whole entry)

[7] = Selectivity ratio of rat 5HT1A to human 5HT7
[8] = target: 5-hydroxytryptamine receptor 7 (Rattus norvegicus) (UniProt P32305); experiment: Antagonist activity at 5HT7 receptor stimulated aldosterone secretion from rat adrenal cortex; type: functional, tissue-based
5-hydroxytryptamine receptor 7 (Rattus norvegicus), sequence (P32305 whole entry): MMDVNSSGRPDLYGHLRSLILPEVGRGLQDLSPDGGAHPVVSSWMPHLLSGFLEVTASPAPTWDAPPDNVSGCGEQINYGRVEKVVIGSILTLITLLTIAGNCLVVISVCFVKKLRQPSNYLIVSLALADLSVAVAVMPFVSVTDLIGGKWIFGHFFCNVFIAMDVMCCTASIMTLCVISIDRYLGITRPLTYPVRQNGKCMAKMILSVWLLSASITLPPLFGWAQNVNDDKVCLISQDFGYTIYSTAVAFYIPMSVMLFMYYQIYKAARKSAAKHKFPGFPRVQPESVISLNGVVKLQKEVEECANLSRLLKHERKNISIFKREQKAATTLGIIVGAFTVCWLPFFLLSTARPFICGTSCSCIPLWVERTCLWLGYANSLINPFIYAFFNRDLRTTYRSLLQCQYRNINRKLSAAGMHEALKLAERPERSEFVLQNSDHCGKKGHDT

SMILES | inhibition [1] [%] | inhibition [2] [%] | inhibition [3] [%] | inhibition [4] [%] | Ki [5] [nM] | Ki [6] [nM] | Ratio Ki [7] | pKb [8] | Activity ([8]; filed as partial agonist)
Cc1cccc(-n2ccc(CCN)c2)c1C | 17 | 48 | 25 | 0 |  |  |  |  | 
Cc1cc(C)c(-n2ccc(CCN(C)C)c2)c(C)c1 | 20 | 56 | 3 | 0 |  |  |  |  | 
Cc1cccc(C)c1-c1cccc(CCN(C)C)c1 | 33 | 93 | 73 | 6 | 6.2 | 2250 | 60 |  | 
COc1ccccc1-c1cccc(CCN(C)C)c1 | 48 | 69 | 23 | 12 | 8.4 | 531 |  |  | 
COc1ccc(-c2cccc(CCN(C)C)c2)cc1 | 37 | 52 | 9 | 0 |  |  |  |  | 
Cc1ccccc1-n1ccc(CCN)c1 | 16 | 62 | 5 | 0 |  |  |  |  | 
CN(C)CCc1cccc(-c2cccs2)c1 | 63 | 75 | 12 | 6 |  |  |  |  | 
CN(C)CCc1cccc(-c2ccccc2)c1 | 18 | 70 | 18 | 2 |  |  |  |  | 
CN(C)CCc1cccc(-c2ccsc2)c1 | 64 | 87 | 12 | 20 |  |  |  |  | 
COc1ccc(-c2cccc(CCN(C)C)c2)cc1OC | 52 | 38 | 0 | 12 |  |  |  |  | 
Cc1ccccc1-c1cccc(CCN(C)C)c1 | 85 | 81 | 72 | 1 | 7.6 | 443 |  | 7.03 | 
Cc1ccccc1-c1cccc(CCN)c1 | 37 | 92 | 71 | 0 | 7.5 | 1470 |  |  | 
COc1cccc(OC)c1-c1cccc(CCN(C)C)c1 | 18 | 100 | 50 | 3 | 8.6 | 4830 | 60 |  | Partial agonist
Cc1ccccc1-n1ccc(CCN(C)C)c1 | 41 | 87 | 16 | 14 |  |  |  |  | 
Cc1cc(C)c(-n2ccc(CCN)c2)c(C)c1 | 0 | 0 | 0 | 0 |  |  |  |  | 
COc1cccc(OC)c1-c1cccc(CCN2CCOCC2)c1 | 14 | 9 | 0 | 7 |  |  |  |  | 
